Assay [1] deals with T1, norepinephrine (NE) transporter (Homo sapiens, UniProt P23975).
T1 construct: expressed in transfected cells; host or cells: CHO cells
The experiment in a line: Norepinephrine transporter binding radioligand inhibition ([3H]-nisoxetine). As to conditions: concentration 10 μM. The protocol:
The norepinephrine (NE) transporter removes NE from the synaptic cleft. The NE transporter terminates the effects of […], enabling its reuse by the presynaptic neuron. The in vitro binding of the compounds of the invention to the NE transporter and the percent inhibition of control-specific binding ([^3H]-nisoxetine in human recombinant CHO cells) is determined following the method described in Pacholczyk et al., (Nature 1991, 350(6316): 350-4.

The target of a further assay is T2, serotonin transporter (Homo sapiens, UniProt P31645).
T2 construct: expressed in transfected cells; host or cells: CHO cells
The assay is described as follows: Serotonin transporter binding radioligand inhibition ([3H]-imipramine). The conditions noted are these: read-out: serotonin binding inhibition. An excerpt:
The serotonin transporter removes serotonin from the synaptic deft. The serotonin transporter terminates the effects of […], enabling its reuse by the presynaptic neuron.

In another assay the target is uptake of norepinephrine (Homo sapiens, UniProt P23975). The experiment in a line: Uptake inhibition of norepinephrine, cellular assay. It is filed as cell-based. The method, then: (§1) The effect of the compounds of the present invention as inhibitors of the uptake of norepinephrine and serotonin in cellular assays at concentrations that range from […] to 1 nM is determined following the methods described in Galli, A. et al. J Exp Biol 1995, 198(Pt. 10): 2197-212 and Gu, H. et al. J Biol Chem. 1994, 269(10):7124-30.

The target in the next assay is uptake of serotonin (Homo sapiens, UniProt P31645). The experiment in a line: Uptake inhibition of serotonin, cellular assay. It is filed as cell-based. The method, then:
as §1

The mark [2] stands for this setting: read-out: Norepinephrine reuptake inhibition (IC50 μM).
[3] abbreviates: read-out: Serotonin reuptake inhibition (IC50 μM).
Setting [4] is: Norepinephrine reuptake inhibition (IC50 μM).
[5] abbreviates: Serotonin reuptake inhibition (IC50 μM).

Molecules are shown by their SMILES. Counter-ions that a name gives are not always drawn. Like-named read-outs stand apart in the source and are kept apart here.

T1 sequence (P23975 whole entry): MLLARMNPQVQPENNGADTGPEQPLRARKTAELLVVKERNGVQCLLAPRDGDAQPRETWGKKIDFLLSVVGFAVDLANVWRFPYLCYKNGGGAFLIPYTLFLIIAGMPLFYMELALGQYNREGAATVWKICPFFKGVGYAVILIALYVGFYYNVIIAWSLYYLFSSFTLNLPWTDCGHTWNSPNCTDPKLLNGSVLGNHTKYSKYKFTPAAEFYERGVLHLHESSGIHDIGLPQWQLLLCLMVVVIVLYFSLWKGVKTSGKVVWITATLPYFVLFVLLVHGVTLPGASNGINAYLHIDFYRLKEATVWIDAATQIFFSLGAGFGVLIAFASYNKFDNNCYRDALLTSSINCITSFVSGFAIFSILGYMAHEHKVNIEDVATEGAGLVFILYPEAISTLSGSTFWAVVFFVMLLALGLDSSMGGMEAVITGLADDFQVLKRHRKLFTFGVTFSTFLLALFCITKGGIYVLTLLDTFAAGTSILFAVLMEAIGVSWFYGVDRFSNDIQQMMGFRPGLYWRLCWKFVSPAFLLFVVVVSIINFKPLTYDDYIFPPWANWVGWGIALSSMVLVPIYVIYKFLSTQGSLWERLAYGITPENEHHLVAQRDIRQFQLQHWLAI
uptake of norepinephrine, sequence (P23975 whole entry): as above
uptake of serotonin, sequence (P31645 whole entry): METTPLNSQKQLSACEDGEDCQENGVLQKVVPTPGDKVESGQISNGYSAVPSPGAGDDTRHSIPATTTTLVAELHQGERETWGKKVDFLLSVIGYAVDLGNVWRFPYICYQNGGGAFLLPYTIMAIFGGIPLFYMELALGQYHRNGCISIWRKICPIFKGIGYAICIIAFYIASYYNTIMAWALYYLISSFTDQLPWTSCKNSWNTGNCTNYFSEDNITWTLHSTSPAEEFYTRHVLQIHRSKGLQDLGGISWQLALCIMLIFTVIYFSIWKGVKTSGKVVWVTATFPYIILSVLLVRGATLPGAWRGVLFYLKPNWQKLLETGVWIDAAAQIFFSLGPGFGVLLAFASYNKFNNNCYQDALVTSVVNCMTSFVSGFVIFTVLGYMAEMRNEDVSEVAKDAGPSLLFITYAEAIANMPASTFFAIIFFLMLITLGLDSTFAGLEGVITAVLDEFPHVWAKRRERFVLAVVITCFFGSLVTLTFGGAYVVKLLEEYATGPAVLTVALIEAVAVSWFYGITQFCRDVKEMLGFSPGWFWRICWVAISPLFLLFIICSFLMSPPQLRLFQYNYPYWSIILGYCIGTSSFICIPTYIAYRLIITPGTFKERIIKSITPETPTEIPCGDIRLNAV
T2 sequence (P31645 whole entry): as above

Take `OCCc1ccc(OC[C@@H]2CNCC[C@H]2c2ccc(F)cc2)cc1` [Example 30, 2-[4-[[(3S,4R)-4-(4-Fluorophenyl)piperidin-3-yl]methoxy]phenyl]ethanol]: the values for the inhibition at 10 µM (in assay [1]; at serotonin transporter (concentration 10 μM)) were 65 to 90% and 68 to 82%, respectively. In addition, the figures for the IC50 on uptake of norepinephrine (setting [2]) and at uptake of serotonin (setting [3]) were 1.6 to 2.9 µM and 2.5 to 4.8 µM, respectively.
On to `CNCCC(Oc1ccc(CCO)cc1)c1ccccc1` (single isomer, unassigned) [Example 6, 2-[4-[3-(Methylamino)-1-phenylpropoxy]phenyl]ethanol ferulic acid salt], for which the half-maximal inhibitory concentration (IC50) (as a rule, the concentration at which inhibition is half-maximal) at uptake of norepinephrine (setting [2]) was in the range of 1.6 to 2.9 µM; at uptake of serotonin (setting [3]), 2.5 to 4.8 µM.
On to `CNCCC(Oc1cc(CCO)cc(CCO)c1)c1ccccc1` (centres unmarked) [Example 20, 2,2′-[5-[3-(Methylamino)-1-phenylpropoxy]-1,3-phenylene]diethanol], for which the figures for the inhibition at 10 µM (in assay [1]; on serotonin transporter (concentration 10 μM)) were 65 to 90% and 68 to 82%, respectively. Also, the IC50 lay within 1.6 to 2.9 µM on uptake of norepinephrine (setting [2]) and 2.5 to 4.8 µM on uptake of serotonin (setting [3]).
Regarding `CN(CCC(Oc1ccc(/C=C/CO)cc1)c1ccccc1)C(=O)OC(C)(C)C` (centres unmarked) [Example 15, (E)-tert-Butyl [3-[4-(3-hydroxyprop-1-enyl)phenoxy]-3-phenylpropyl](methyl)carbamate], the inhibition (usually the share of the control response that was lost under treatment) at 10 µM was in the range of 65 to 90% in assay [1] and 68 to 82% at serotonin transporter (concentration 10 μM). The results for the IC50 at uptake of norepinephrine (setting [2]) and at uptake of serotonin (setting [3]) were 1.6 to 2.9 µM and 2.5 to 4.8 µM, respectively.
Regarding `CNCCC(Oc1ccc(CCO[C@@H]2O[C@H](CO)[C@@H](O)[C@H](O)[C@H]2O)cc1)c1ccccc1` (stereo partly drawn) [Example 23, (2R,3S,4S,5R,6R)-2-(Hydroxymethyl)-6-[4-[3-(methylamino)-1-phenylpropoxy]phenethoxy]tetrahydro-2H-pyran-3,4,5-triol], the inhibition at 10 µM in assay [1] is 65 to 90%; at serotonin transporter (concentration 10 μM), 68 to 82%. Also, the IC50 at uptake of norepinephrine (setting [2]) is 1.6 to 2.9 µM; on uptake of serotonin (setting [3]), 2.5 to 4.8 µM.
Take `CCCC(CCC)C(=O)N(C)CCC(Oc1ccc(CCO)cc1)c1ccccc1` (centres unmarked) [Example 11, N-[3-[4-(2-Hydroxyethyl)phenoxy]-3-phenylpropyl]-N-methyl-2-propylpentanamide]: the figures for the inhibition at 10 µM (in assay [1]; on serotonin transporter (concentration 10 μM)) were 65 to 90% and 68 to 82%, respectively. The IC50 on uptake of norepinephrine (setting [2]) fell in the range of 1.6 to 2.9 µM; at uptake of serotonin (setting [3]) it was 2.5 to 4.8 µM.
Take `CNCCC(Oc1ccc(CCCO)cc1)c1ccccc1` (centres unmarked) [Example 16, 3-[4-[3-(Methylamino)-1-phenylpropoxy]phenyl]propan-1-ol hydrochloride]: the inhibition at 10 µM in assay [1] came out at 90%; at serotonin transporter (concentration 10 μM) it was 78%. The values for the IC50 at uptake of norepinephrine (setting [2]) and at uptake of serotonin (setting [3]) were 0.46 µM and 2.36 µM, respectively.
`OCCc1ccc(OC(c2ccccc2)C2CNCCO2)cc1` (centres unmarked) [Example 29, 2-[4-(Morpholin-2-yl(phenyl)methoxy)phenyl]ethanol]: the inhibition at 10 µM fell in the range of 65 to 90% in assay [1] and 68 to 82% on serotonin transporter (concentration 10 μM). Besides, the IC50 on uptake of norepinephrine (setting [2]) was 1.6 to 2.9 µM; on uptake of serotonin (setting [3]), 2.5 to 4.8 µM.
As for `CNCCC(Oc1ccc(C/C=C/CO)cc1)c1ccccc1` (centres unmarked) [Example 25, 4-[4-(3-Methylamino-1-phenylpropoxy)phenyl]but-2-en-1-ol], the inhibition at 10 µM lay within 65 to 90% in assay [1] and 68 to 82% at serotonin transporter (concentration 10 μM). The IC50 lay within 1.6 to 2.9 µM on uptake of norepinephrine (setting [2]) and 2.5 to 4.8 µM on uptake of serotonin (setting [3]).
As for `CNCCC(Oc1ccc(/C=C/CCCCO)cc1)c1ccccc1` (centres unmarked) [Example 27, 6-[4-(3-Methylamino-1-phenylpropoxy)phenyl]hex-5-en-1-ol], the inhibition at 10 µM in assay [1] is 65 to 90%; on serotonin transporter (concentration 10 μM), 68 to 82%. Further, the IC50 on uptake of norepinephrine (setting [2]) was 1.6 to 2.9 µM; at uptake of serotonin (setting [3]), 2.5 to 4.8 µM.
Take `CNCCC(Oc1ccc(CCCCO)cc1)c1ccccc1` (centres unmarked) [Example 14, 4-[4-[3-(Methylamino)-1-phenylpropoxy]phenyl]butan-1-ol hydrochloride]: the inhibition at 10 µM came out at 85% in assay [1] and 89% on serotonin transporter (concentration 10 μM). Besides, the IC50 worked out at 0.74 µM at uptake of norepinephrine (setting [2]) and 0.32 µM on uptake of serotonin (setting [3]).
For the compound `CN(C)CC(Oc1ccc(CCO)cc1)C1(O)CCCCC1` (centres unmarked) [Example 32, 1-[2-Dimethylamino-1-[4-(2-hydroxyethyl)phenoxy]-ethyl]-cyclohexanol], the inhibition at 10 µM in assay [1] lay within 65 to 90%; on serotonin transporter (concentration 10 μM), 68 to 82%. Moreover, the IC50 at uptake of norepinephrine (setting [2]) was in the range of 1.6 to 2.9 µM; at uptake of serotonin (setting [3]), 2.5 to 4.8 µM.
For `CNCCC(Oc1ccc(CCCCCCO)cc1)c1ccccc1` (centres unmarked) [Example 26, 6-[4-(3-Methylamino-1-phenylpropoxy)phenyl]hexan-1-ol], the inhibition at 10 µM in assay [1] lay within 65 to 90%; on serotonin transporter (concentration 10 μM) it was 68 to 82%. The values for the 50% inhibitory concentration (IC50) on uptake of norepinephrine (setting [2]) and at uptake of serotonin (setting [3]) were 1.6 to 2.9 µM and 2.5 to 4.8 µM, respectively.
On the same counts, the results for `CNCCC(Oc1ccc(CCOC(C)=O)cc1)c1ccccc1` (centres unmarked) [Example 10, 4-[3-(Methylamino)-1-phenylpropoxy]phenethyl acetate hydrochloride] are 65 to 90%, 68 to 82%, 1.6 to 2.9 µM and 2.5 to 4.8 µM.
For `CNCC[C@@H](Oc1ccc(CCO)cc1)c1cccs1` [Example 13, (R)-2-[4-[3-(Methylamino)-1-(thiophen-2-yl)propoxy]phenyl]ethanol], in that order: 80%, 79%, 2.8 µM and 2.6 µM.
As to `CN(C)CCC(Oc1ccc(CCO)cc1)c1ccccc1` (centres unmarked) [Example 24, 2-[4-(3-Dimethylamino-1-phenylpropoxy)phenyl]ethanol], the figures for the inhibition at 10 µM (in assay [1]; on serotonin transporter (concentration 10 μM)) were 65 to 90% and 68 to 82%, respectively. For the same compound, the values for the IC50 at uptake of norepinephrine (setting [2]) and on uptake of serotonin (setting [3]) were 1.6 to 2.9 µM and 2.5 to 4.8 µM, respectively.
Turning to `CNCCC(Oc1cc(CCCCO)cc(CCCCO)c1)c1ccccc1` (centres unmarked) [Example 22, 4,4′-[5-[3-(Methylamino)-1-phenylpropoxy]-1,3-phenylene]dibutan-1-ol], the results for the inhibition at 10 µM (in assay [1]; at serotonin transporter (concentration 10 μM)) were 65 to 90% and 68 to 82%, respectively. The concentration for half-maximal inhibition (IC50) on uptake of norepinephrine (setting [2]) was 1.6 to 2.9 µM; on uptake of serotonin (setting [3]), 2.5 to 4.8 µM.
For `CNCCC(Oc1cc(CO)cc(CO)c1)c1ccccc1` (centres unmarked) [Example 19, [5-[3-(Methylamino)-1-phenylpropoxy]-1,3-phenylene]dimethanol hydrochloride], the results for the inhibition at 10 µM (in assay [1]; at serotonin transporter (concentration 10 μM)) were 75% and 79%, respectively. Besides, the 50% inhibitory concentration (IC50) was 1.59 µM on uptake of norepinephrine (setting [2]) and 4.35 µM on uptake of serotonin (setting [3]).
On to `CNCCC(Oc1ccc(CCO)cc1)c1ccccc1` [Example 5, 2-[4-[3-(Methylamino)-1-phenylpropoxy]phenyl]ethanol L-ascorbic acid salt], for which the inhibition at 10 µM in assay [1] was 65 to 90%; at serotonin transporter, 68 to 82%. In addition, the values for the IC50 against uptake of norepinephrine (setting [4]) and against uptake of serotonin (setting [5]) were 1.6 to 2.9 µM and 2.5 to 4.8 µM, respectively.
On to `O=C1CCCN1CCOc1ccc(CCO)cc1` [Example 1, 1-[2-[4-(2-Hydroxyethyl)phenoxy]ethyl]pyrrolidin-2-one], for which the inhibition at 10 µM fell in the range of 65 to 90% in assay [1] and 68 to 82% at serotonin transporter (concentration 10 μM). Besides, the IC50 fell in the range of 1.6 to 2.9 µM at uptake of norepinephrine (setting [2]) and 2.5 to 4.8 µM on uptake of serotonin (setting [3]).
Consider `CNCCC(Oc1ccc(CO)cc1)c1ccccc1` (centres unmarked) [Example 17, [4-[3-(Methylamino)-1-phenylpropoxy]phenyl]methanol hydrochloride], for which the inhibition at 10 µM in assay [1] turned out to be 94%; on serotonin transporter (concentration 10 μM) it was 97%. Further, the values for the concentration for half-maximal inhibition (IC50) at uptake of norepinephrine (setting [2]) and at uptake of serotonin (setting [3]) were 0.13 µM and 0.42 µM, respectively.
For `CNCCC(Oc1cc(CCCO)cc(CCCO)c1)c1ccccc1` (centres unmarked) [Example 21, 3,3′-[5-[3-(Methylamino)-1-phenylpropoxy]-1,3-phenylene]dipropan-1-ol], in that order: 65 to 90%, 68 to 82%, 1.6 to 2.9 µM and 2.5 to 4.8 µM.
On the same counts, the results for `CN(C)CC(Oc1ccc(CCO)cc1)C1CCCCC1O` (centres unmarked) [Example 31, 2-[2-Dimethylamino-1-[4-(2-hydroxyethyl)phenoxy]ethyl]cyclohexanol] are 65 to 90%, 68 to 82%, 1.6 to 2.9 µM and 2.5 to 4.8 µM.
Take `CNCCC(Oc1ccc(CCO)cc1)c1ccccc1` (single isomer, unassigned) [Example 7, 2-[4-[3-(Methylamino)-1-phenylpropoxy]phenyl]ethanol caffeic acid salt]: the inhibition at 10 µM on serotonin transporter (concentration 10 μM) is 68 to 82%. For the same compound, the IC50 at uptake of norepinephrine (setting [2]) fell in the range of 1.6 to 2.9 µM; at uptake of serotonin (setting [3]), 2.5 to 4.8 µM.
For `CNCCC(Oc1ccc(CCO)cc1)c1ccccc1` (centres unmarked) [Example 8, 2-[4-[3-(Methylamino)-1-phenylpropoxy]phenyl]ethanol valproic acid salt], the IC50 against uptake of norepinephrine (setting [4]) was in the range of 1.6 to 2.9 µM; on uptake of serotonin (setting [5]), 2.5 to 4.8 µM.
Regarding `CNCCC(Oc1ccc(CCO)cc1)c1ccccc1` [Example 9, 2-[4-[3-(Methylamino)-1-phenylpropoxy]phenyl]ethanol (R)-lipoic acid salt], the half-inhibitory concentration (IC50) at uptake of norepinephrine (setting [4]) was 1.6 to 2.9 µM; at uptake of serotonin (setting [5]), 2.5 to 4.8 µM.
In the case of `CNCC[C@H](Oc1ccc(CCO)cc1)c1cccs1` [Example 28, (S)2-[4-(3-Methylamino-1-thiophen-2-ylpropoxy)phenyl]ethanol], the inhibition at 10 µM in assay [1] fell in the range of 65 to 90%; at serotonin transporter (concentration 10 μM), 68 to 82%. Further, the half-maximal inhibitory concentration (IC50) at uptake of norepinephrine (setting [2]) is 1.6 to 2.9 µM; on uptake of serotonin (setting [3]), 2.5 to 4.8 µM.
